Experiments:
[1] = test system: ERSE-FLuc reporter (ATF6 arm of the UPR); assay: ERSE-FLuc reporter, 1536-well confirmation screen in HEK293T-Rex cells; assay type: cell-based; conditions: % Tg (500 nM) activation, triplicate confirmation screen at 6.8 μM, 18 h
From the text: We employed a transcriptional reporter that quantifies activation of the ATF6 arm of the UPR in HEK293T-Rex cells. This reporter contains a fragment of the UPR-inducible BiP promoter, including three ER stress-responsive elements (ERSEs), driving expression of firefly luciferase (ERSE-FLuc; FIG. 1a)^34. We previously employed this reporter for a small-scale screen using the 1280 member compound Library of Pharmacologic Active Compounds (LoPAC) to find small molecules that activate the UPR^8. […] Optimization and miniaturization of this assay to 1536-well format was performed at the Scripps Research Institute Molecule Screening Center (SRIMSC).
HEK293T-Rex cells incorporating either the ERSE-FLuc or XBP1s-RLuc reporters were collected by trypsinization and resuspended at a density of 500,000 cells per mL. The assay was started by dispensing 5 μL of cell suspension into each well of white, solid-bottom 1536-well plates using a flying reagent dispenser (FRD) and placed into an online incubator 3 h. Cells were then treated with 34 nL/well of either test compounds to give final concentrations of 6.8 μM, DMSO (Low control, final concentration 0.68%, 0% activation) or […] of Delta-7 thapsigargin (High control, final concentration 500 nM, 100% activation). Plates were incubated for 18 h at 37° C., removed from the incubator and equilibrated to room temperature for 10 min. Luciferase activity was detected by addition of 5 μL of ONE-Glo reagent (Promega) to each well. After a 10 min incubation time, light emission was measured with the ViewLux reader (PerkinElmer). The percent activation of each test compound was calculated as follows: % Activation=100*(Test Compound−Median Low Control)/(Median High Control ˜Median Low Control).

[2] = test system: endogenous secretory proteome of HepG2^ATF6 cells; assay: [35S] metabolic labeling, total secreted protein from HepG2^ATF6 cells; assay type: cell-based; conditions: 15 h pretreatment, 10 μM compound or 1 μM Tg, 4 h chase
Description: HepG2 cells or HEK293T cells plated on poly-D-lysine coated plates were metabolically labeled in DMEM-Cys/-Met (CellGro) supplemented with glutamine, penicillin/streptomycin, dialyzed fetal bovine serum, and EasyTag EXPRESS^35S Protein Labeling Mix (Perkin Elmer) for 30 min. Cells were washed twice with complete media and incubated in prewarmed DMEM for the indicated times. Media or lysates were harvested at the indicated times. Lysates were prepared in RIPA buffer with fresh protease inhibitor cocktail (Roche). FLAG tagged TTR variants or ALLC were immunopurified using M1 anti-FLAG agarose beads (Sigma-Aldrich) and washed three times with RIPA buffer. The immunoisolates were then eluted by boiling in Laemmli buffer and separated on SDS-PAGE. For total secreted media, 15 uL aliquots from media incubated for 4 hrs on pulsed cells were run on a SDS-PAGE. The gels were then dried, exposed to phosphorimager plates (GE Healthcare), and imaged with a Typhoon imager. Band intensities were quantified by densitometry in ImageQuant. Fraction secreted was calculated using the equation: fraction secreted=[extracellular [^35S]-LC signal at t=t/(extracellular [^35S]-LC signal at t=0+intracellular [^35S]-LC signal at t=0)]. Fraction remaining was calculated using the equation: [(extracellular [^35S]-LC signal at t=t+intracellular [^35S]-LC signal at t=t)/(extracellular [^35S]-LC signal at t=0+ intracellular [^35S]-LC signal at t=0)].

[3] = test system: ALLC (amyloidogenic light chain); assay: Light chain ELISA, ALLC from ALMC-2 plasma cells; assay type: cell-based, human; conditions: ALMC-2 cells; for EC50: read-out: EC50 of dose dependent reduction in ALLC secretion
Description: ALMC-2 or KAS-6/1 plasma cells were plated 100,000 cells/well in 150 μL of media in 96-well MultiScreenHTS filtration plates (Millipore MSBVS1210). Triplicate wells were treated with DMSO or compounds at the indicated concentrations and incubated for 16 h. Media was removed by filtration using a QIAvac 96 vacuum manifold (Qiagen) and wells were washed two times with 150 μL media. Wells were then incubated with 150 μL of fresh media for 2 hr and the conditioned media was harvested into a 96-well plate using the vacuum manifold. Free λLC and IgG concentrations were determined by ELISA in 96-well plates (Immulon 4HBX, Thermo Scientific). Wells were coated overnight at 37° C. with rabbit anti-human A light chain polyclonal antibody (Bethyl Laboratories, A90-112A) at a 1:1000 dilution or human IgG-heavy and light chain antibody (Bethyl Laboratories, A80-118A) at a 1:2000 dilution in 50 mM sodium carbonate (pH 9.6). In between all incubation steps, the plates were rinsed extensively with Tris-buffered saline containing 0.05% Tween-20 (TBST). Plates were blocked with 5% non-fat dry milk in TBST for 1 h at 37° C. Media analytes were diluted between 5-200 fold in 5% non-fat dry milk in TBST and 100 μL of each sample was added to individual wells. Light chain or IgG standards ranging from 3-300 ng/mL were prepared from purified human Bence Jones A light chain or human reference serum (Bethyl Laboratories, P80-127 and RS10-110). Plates were incubated at 37° C. for 1.5 h while shaking. Finally, HRP-conjugated goat anti-human A light chain antibody (Bethyl Laboratories, A80-116P) was added at a 1:10,000 dilution or HRP-conjugate IgG-Fc fragment cross-adsorbed antibody (Bethyl Laboratories, A80-304P, 1:30,000 dilution) was added in 5% non-fat dry milk in TBST, followed by a 1.5 h incubation of the plates at 37° C. The detection was carried out with 2,2′-azinobis(3-ethylbenzothiazoline-6-sulfonic acid) (ABTS, 0.18 mg/mL) and 0.03% hydrogen peroxide in 100 mM sodium citrate pH 4.0. Detection solution (100 μL) was added to each well and the plates were incubated at room temperature. The absorbance was recorded at 405 nm and the values for the LC standards were fitted to a 4-parameter logistic function. Light chain or IgG concentrations were averaged from at least 3 independent replicates under each treatment and then normalized to vehicle conditions.

Cc1ccc(O)c(N/C=C/C(=O)c2ccc(F)cc2)c1 [Compound 132]
% ERSE-FLuc activation [1]: 140.1 ± 17.4% | accumulation of [35S]-labeled protein in media (total secreted proteome) [2]: did not influence | EC50 [3]: ~1000 nM

Cc1ccc(O)c(NC(=O)CCc2ccccc2)c1 [Compound 147]
% ERSE-FLuc activation [1]: 63.2 ± 0.6% | accumulation of [35S]-labeled protein in media (total secreted proteome) [2]: did not influence | reduction of ALLC secretion ([3]; 10 μM pretreatment, ELISA): 60% | ALLC intracellular protein levels ([3]; ELISA): unchanged | EC50 [3]: ~1000 nM

O=[N+]([O-])c1ccc(N/N=C/c2ccccc2O)cc1 [Compound 263]
% ERSE-FLuc activation [1]: 20.7 ± 2.3% | accumulation of [35S]-labeled protein in media (total secreted proteome) [2]: did not influence | ALLC secretion (in words) ([3]; 10 μM): only minimally affects

— patent US11135186B2, “Regulators of the endoplasmic reticulum proteostasis network” (The Scripps Research Institute, priority 2015, dated 2021)
